Data published in ChEMBL document CHEMBL1138280, “Synthesis and characterization of 8-ethynyl-1,3-dihydro-benzo[b][1,4]diazepin-2-one derivatives: new potent non-competitive metabotropic glutamate receptor 2/3 antagonists. Part 1” (Bioorg Med Chem Lett, 2007).
The source made the active and inactive calls. The rule behind the calls is not given here.

Assays:
[1] = target: T1, Metabotropic glutamate receptor 2 (Rattus norvegicus, UniProt P31421); test: Displacement of [3H]LY354740 from rat mGluR2 expressed in CHO cells; format: cell-based
[2] = target: T1, Metabotropic glutamate receptor 2; test: Antagonist activity at rat mGlu2 expressed in CHO cells assessed as inhibition of (1S,3R)-ACPD-stimulated GTPgammaS binding; format: functional, cell-based
Homo sapiens [3] = species on record: Homo sapiens; test: Binding affinity to NMDA
[4] = target: Metabotropic glutamate receptor 1 (Rattus norvegicus) (UniProt P23385); test: Inhibition of glutamate-stimulated rat mGlu1a by calcium mobilization assay at 30 uM; format: functional
[5] = target: Metabotropic glutamate receptor 5 (Rattus norvegicus) (UniProt P31424); test: Inhibition of glutamate-stimulated rat mGlu5a by calcium mobilization assay at 30 uM; format: functional
Rattus norvegicus = species on record: Rattus norvegicus; test: Displacement of [3H]L-AP4 from mGlu8a receptor
Homo sapiens [6] = species on record: Homo sapiens; test: Binding affinity to GABAA
[7] = target: Metabotropic glutamate receptor 2 (Rattus norvegicus) (UniProt P31421); test: Antagonist activity at rat mGluR2 expressed in CHO cells co expressing human Kir3.1 assessed as glutamate-induced inward potassium current; format: functional, cell-based
[8] = target: Metabotropic glutamate receptor 3 (Rattus norvegicus) (UniProt P31422); test: Antagonist activity at rat mGluR3 expressed in CHO cells co expressing human Kir3.2c assessed as glutamate-induced inward potassium current; format: functional, cell-based
[9] = target: Metabotropic glutamate receptor 2 (Rattus norvegicus) (UniProt P31421); test: Displacement of [3H]LY354740 from rat mGluR2 expressed in CHO cells assessed as residual binding; format: cell-based

T1 sequence (P31421 whole entry): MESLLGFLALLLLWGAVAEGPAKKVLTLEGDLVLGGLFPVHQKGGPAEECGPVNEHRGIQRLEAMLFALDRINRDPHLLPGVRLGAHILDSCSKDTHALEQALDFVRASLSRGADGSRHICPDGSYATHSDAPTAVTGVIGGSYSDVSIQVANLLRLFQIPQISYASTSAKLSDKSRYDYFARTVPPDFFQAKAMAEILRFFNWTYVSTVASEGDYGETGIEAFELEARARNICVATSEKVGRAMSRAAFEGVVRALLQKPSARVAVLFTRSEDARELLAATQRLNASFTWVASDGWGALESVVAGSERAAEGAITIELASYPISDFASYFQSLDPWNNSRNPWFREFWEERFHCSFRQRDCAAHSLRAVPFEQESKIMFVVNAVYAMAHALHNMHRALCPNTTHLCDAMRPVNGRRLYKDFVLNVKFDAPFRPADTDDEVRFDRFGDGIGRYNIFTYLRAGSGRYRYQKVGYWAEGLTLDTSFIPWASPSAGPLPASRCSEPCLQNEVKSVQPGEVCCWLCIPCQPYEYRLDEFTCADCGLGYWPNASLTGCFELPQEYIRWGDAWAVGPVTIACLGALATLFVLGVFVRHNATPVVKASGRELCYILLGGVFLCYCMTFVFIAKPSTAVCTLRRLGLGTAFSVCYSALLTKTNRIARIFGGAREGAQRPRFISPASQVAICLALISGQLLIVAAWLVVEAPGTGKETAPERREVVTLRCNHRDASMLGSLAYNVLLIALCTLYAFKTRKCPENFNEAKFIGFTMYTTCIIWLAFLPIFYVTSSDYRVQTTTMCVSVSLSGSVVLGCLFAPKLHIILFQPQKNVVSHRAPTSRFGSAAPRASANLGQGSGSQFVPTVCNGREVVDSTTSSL
Metabotropic glutamate receptor 2 (Rattus norvegicus), sequence (P31421 19-872 limits assumed): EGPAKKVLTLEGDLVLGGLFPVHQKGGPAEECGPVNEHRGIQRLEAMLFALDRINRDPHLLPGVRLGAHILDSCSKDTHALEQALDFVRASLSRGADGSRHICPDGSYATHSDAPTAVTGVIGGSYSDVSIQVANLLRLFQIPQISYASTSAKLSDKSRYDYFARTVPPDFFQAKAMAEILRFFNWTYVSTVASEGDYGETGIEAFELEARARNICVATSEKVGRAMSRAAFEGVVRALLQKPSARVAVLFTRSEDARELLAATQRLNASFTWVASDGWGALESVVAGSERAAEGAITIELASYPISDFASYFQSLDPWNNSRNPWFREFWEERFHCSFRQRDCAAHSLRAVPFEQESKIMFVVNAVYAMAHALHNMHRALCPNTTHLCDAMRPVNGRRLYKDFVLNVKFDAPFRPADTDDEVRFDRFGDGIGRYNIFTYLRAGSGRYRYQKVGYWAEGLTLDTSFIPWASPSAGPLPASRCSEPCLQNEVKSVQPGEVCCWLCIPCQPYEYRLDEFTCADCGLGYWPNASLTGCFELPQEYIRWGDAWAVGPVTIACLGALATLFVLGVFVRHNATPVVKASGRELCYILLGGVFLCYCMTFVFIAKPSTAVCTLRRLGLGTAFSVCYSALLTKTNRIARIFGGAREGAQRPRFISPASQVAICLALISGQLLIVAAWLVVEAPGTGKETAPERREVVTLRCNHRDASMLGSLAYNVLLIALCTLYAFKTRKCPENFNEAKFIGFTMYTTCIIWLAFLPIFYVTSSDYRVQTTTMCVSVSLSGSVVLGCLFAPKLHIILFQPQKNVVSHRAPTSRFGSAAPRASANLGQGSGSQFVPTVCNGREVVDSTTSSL
Metabotropic glutamate receptor 3 (Rattus norvegicus), sequence (P31422 23-879 limits assumed): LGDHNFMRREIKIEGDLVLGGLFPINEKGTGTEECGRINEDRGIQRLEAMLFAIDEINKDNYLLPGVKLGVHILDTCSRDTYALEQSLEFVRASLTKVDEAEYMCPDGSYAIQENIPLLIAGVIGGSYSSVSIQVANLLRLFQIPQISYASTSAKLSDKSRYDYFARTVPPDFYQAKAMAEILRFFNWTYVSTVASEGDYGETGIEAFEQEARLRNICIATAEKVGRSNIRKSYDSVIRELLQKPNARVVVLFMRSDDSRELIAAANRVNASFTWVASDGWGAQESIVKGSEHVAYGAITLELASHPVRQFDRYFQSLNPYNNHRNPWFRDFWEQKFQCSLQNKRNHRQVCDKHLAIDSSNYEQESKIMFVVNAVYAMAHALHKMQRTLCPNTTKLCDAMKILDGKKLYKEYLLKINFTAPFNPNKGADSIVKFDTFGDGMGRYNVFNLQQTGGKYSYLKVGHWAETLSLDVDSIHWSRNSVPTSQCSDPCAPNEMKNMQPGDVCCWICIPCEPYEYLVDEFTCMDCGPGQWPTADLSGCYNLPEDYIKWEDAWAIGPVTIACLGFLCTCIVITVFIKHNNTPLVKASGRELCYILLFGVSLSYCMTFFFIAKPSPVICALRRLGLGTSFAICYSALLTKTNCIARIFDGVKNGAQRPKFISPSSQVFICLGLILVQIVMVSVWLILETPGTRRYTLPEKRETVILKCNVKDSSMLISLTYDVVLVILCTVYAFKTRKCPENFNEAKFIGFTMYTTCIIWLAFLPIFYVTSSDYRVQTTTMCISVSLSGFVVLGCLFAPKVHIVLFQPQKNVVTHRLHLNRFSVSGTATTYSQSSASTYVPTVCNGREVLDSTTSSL
Metabotropic glutamate receptor 1 (Rattus norvegicus), sequence (P23385 19-1199 limits assumed): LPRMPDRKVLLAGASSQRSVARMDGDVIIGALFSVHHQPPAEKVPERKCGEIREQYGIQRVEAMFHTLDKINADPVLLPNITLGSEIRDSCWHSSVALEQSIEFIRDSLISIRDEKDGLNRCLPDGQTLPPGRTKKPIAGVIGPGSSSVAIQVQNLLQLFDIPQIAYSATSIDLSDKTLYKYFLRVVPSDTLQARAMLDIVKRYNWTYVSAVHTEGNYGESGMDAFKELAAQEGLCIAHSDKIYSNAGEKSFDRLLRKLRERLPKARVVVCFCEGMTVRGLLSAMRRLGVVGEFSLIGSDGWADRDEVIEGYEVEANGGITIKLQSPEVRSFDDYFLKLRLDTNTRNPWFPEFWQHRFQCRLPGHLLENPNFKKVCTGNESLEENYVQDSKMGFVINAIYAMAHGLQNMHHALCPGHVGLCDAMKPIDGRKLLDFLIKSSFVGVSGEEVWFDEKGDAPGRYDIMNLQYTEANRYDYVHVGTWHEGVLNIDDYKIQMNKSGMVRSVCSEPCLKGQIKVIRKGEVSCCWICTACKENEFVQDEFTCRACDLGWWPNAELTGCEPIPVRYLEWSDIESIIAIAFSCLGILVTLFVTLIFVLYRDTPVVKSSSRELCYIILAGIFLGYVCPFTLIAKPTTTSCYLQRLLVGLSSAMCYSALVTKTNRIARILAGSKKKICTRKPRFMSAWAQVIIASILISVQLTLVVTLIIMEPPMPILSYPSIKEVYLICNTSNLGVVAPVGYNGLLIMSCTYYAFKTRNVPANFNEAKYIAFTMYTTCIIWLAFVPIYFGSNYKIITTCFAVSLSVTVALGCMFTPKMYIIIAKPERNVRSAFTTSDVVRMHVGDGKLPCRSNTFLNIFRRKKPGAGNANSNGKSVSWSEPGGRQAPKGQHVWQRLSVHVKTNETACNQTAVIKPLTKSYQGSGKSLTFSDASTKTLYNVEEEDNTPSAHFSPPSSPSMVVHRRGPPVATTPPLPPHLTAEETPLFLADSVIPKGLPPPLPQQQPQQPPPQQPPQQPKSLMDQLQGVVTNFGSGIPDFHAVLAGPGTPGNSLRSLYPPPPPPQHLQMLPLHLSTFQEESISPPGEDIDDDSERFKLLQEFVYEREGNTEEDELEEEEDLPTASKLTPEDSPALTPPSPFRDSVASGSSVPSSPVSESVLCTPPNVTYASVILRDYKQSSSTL
Metabotropic glutamate receptor 5 (Rattus norvegicus), sequence (P31424 21-1203 limits assumed): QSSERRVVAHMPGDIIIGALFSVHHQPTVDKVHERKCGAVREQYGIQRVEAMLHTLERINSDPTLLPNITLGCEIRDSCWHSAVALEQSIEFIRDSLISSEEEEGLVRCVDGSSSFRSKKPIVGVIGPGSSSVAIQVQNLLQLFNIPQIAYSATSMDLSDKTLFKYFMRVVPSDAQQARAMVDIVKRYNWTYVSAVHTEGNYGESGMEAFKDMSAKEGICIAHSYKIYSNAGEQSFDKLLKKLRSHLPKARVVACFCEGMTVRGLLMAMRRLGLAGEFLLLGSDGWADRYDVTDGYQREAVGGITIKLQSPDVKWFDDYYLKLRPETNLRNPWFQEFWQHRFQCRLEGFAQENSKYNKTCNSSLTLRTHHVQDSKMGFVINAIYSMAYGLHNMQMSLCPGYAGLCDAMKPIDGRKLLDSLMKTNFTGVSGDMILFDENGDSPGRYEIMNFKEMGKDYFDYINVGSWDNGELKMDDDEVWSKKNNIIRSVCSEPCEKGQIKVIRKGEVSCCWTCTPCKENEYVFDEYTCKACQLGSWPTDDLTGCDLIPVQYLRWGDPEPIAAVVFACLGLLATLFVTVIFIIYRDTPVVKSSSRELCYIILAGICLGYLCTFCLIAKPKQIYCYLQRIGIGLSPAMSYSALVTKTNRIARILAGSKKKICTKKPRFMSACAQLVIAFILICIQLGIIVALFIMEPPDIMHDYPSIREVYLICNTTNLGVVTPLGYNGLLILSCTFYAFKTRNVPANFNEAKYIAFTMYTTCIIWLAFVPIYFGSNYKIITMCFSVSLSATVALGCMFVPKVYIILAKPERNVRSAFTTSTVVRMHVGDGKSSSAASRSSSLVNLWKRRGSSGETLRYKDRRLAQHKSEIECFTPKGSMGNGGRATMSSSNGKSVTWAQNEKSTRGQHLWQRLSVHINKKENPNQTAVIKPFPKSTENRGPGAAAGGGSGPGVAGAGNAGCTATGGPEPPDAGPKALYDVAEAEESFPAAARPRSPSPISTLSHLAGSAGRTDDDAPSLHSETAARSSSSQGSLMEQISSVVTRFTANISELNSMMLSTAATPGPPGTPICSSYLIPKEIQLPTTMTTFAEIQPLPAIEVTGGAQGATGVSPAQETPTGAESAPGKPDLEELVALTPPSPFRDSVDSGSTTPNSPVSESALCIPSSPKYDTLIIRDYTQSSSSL

| Compound | IC50 [1] | also measured |
| --- | --- | --- |
| NC(=O)c1cccc(C2=Nc3ccc(C#Cc4ccccc4)cc3NC(=O)C2)c1 | 358 nM | – |
| CN1CCN(C(=O)c2cccc(C3=Nc4ccc(C#Cc5ccccc5)cc4NC(=O)C3)c2)CC1 | 1040 nM | – |
| N#Cc1cccc(C2=Nc3ccc(C#Cc4ccc(F)cc4)cc3NC(=O)C2)c1 | 34 nM | – |
| N#Cc1cccc(C2=Nc3cc(OCC(=O)O)c(C#Cc4ccccc4)cc3NC(=O)C2)c1 | 600 nM | – |
| CC(C)O/C(=C\n1cncn1)c1ccc(Cl)cc1Cl | – | IC50 [2]: 6000 nM |
| N#Cc1cccc(C2=Nc3cc(N4CCS(=O)(=O)CC4)c(C#Cc4ccccc4)cc3NC(=O)C2)c1 | 160 nM | – |
| Cc1ccc2c(c1)NC(=O)CC(c1cccc(C#N)c1)=N2 | 2900 nM | – |
| COc1ccc(C#Cc2ccc3c(c2)NC(=O)CC(c2cccc(C#N)c2)=N3)cc1 | 68 nM | – |
| COc1cccc(C2=Nc3ccc(C)cc3NC(=O)C2)c1 | 6580 nM | – |
| Cc1ccc2c(c1)NC(=O)CC(c1cccc(Cl)c1)=N2 | 2820 nM | – |
| O=C1CC(c2cccc(C(F)(F)F)c2)=Nc2ccc(C#Cc3ccccc3)cc2N1 | 268 nM | – |
| N#Cc1cccc(C2=Nc3ccc(C#Cc4ccccc4Cl)cc3NC(=O)C2)c1 | 76 nM | – |
| CC(C)(C)NC(=O)COc1cc2c(cc1C#Cc1ccccc1)NC(=O)CC(c1cccc(C#N)c1)=N2 | 26 nM | – |
| N#Cc1cccc(C2=Nc3ccc(C#Cc4ccccn4)cc3NC(=O)C2)c1 | 870 nM | – |
| Cc1ccc(C#Cc2ccc3c(c2)NC(=O)CC(c2cccc(C#N)c2)=N3)cc1 | 64 nM | – |
| N#Cc1cccc(C2=Nc3cc(N4CCOCC4)c(C#Cc4ccccc4)cc3NC(=O)C2)c1 | 378 nM | – |
| N#Cc1cccc(C2=Nc3cc(N4CC[S+]([O-])CC4)c(C#Cc4ccccc4)cc3NC(=O)C2)c1 | 446 nM | – |
| COC1CCN(c2cc3c(cc2C#Cc2ccccc2)NC(=O)CC(c2cccc(C#N)c2)=N3)CC1 | 82 nM | – |
| N#Cc1cccc(C2=Nc3cc(OCC(N)=O)c(C#Cc4ccccc4)cc3NC(=O)C2)c1 | 2400 nM | – |
| C=C(C)C#Cc1ccc2c(c1)NC(=O)CC(c1cccc(C#N)c1)=N2 | 400 nM | – |
| COc1ccc(C2C(C(=O)OCCN(C)C)=C(C)N=C3SC(c4c(Cl)cccc4Cl)=CN32)cc1 (configuration not stated) | – | IC50 [2]: 30000 nM |

Continued by falling IC50 [1], values first:

| IC50 [1] | Compound | also measured |
| --- | --- | --- |
| 26000 nM | CC(C)(O)C#Cc1ccc2c(c1)NC(=O)CC(c1cccc(C#N)c1)=N2 | – |
| 1530 nM | Cc1ccc2c(c1)NC(=O)CC(c1cccc(C(F)(F)F)c1)=N2 | – |
| 962 nM | COc1cccc(C2=Nc3ccc(C#Cc4ccccc4)cc3NC(=O)C2)c1 | – |
| 480 nM | N#Cc1cccc(C2=Nc3ccc(C#Cc4ccc(F)cc4F)cc3NC(=O)C2)c1 | – |
| 360 nM | O=C1CC(c2cccc(C(=O)N3CCOCC3)c2)=Nc2ccc(C#Cc3ccccc3)cc2N1 | – |
| 300 nM | N#Cc1cccc(C2=Nc3ccc(C#Cc4nccs4)cc3NC(=O)C2)c1 | – |
| 278 nM | CN1CCN(c2cc3c(cc2C#Cc2ccccc2)NC(=O)CC(c2cccc(C#N)c2)=N3)CC1 | – |
| 154 nM | O=C1CC(c2cccc(I)c2)=Nc2ccc(C#Cc3ccccc3)cc2N1 | – |
| 92 nM | COc1cc2c(cc1C#Cc1ccccc1)NC(=O)CC(c1cccc(C#N)c1)=N2 | – |
| 80 nM | O=C1CC(c2cccc(Cl)c2)=Nc2ccc(C#Cc3ccccc3)cc2N1 | – |
| 60 nM | CN(C)c1cc2c(cc1C#Cc1ccccc1)NC(=O)CC(c1cccc(C#N)c1)=N2 | – |
| 40 nM | N#Cc1cccc(C2=Nc3cc(N4CCSCC4)c(C#Cc4ccccc4)cc3NC(=O)C2)c1 | – |
| 34 nM | N#Cc1cccc(C2=Nc3ccc(C#Cc4ccccc4)cc3NC(=O)C2)c1 | Activity (Homo sapiens [3]): inactive; Activity [4]: inactive; Activity [5]: inactive; Activity (Rattus norvegicus): inactive; Activity (Homo sapiens [6]): inactive; Activity [7]: Active; Activity [8]: Active; Activity [9]: 25% |
| 32 nM | N#Cc1cccc(C2=Nc3ccc(C#Cc4cccs4)cc3NC(=O)C2)c1 | – |
| 30 nM | N#Cc1cccc(C2=Nc3ccc(C#Cc4ccccc4F)cc3NC(=O)C2)c1 | – |
| 28 nM | COCCOc1cc2c(cc1C#Cc1ccccc1)NC(=O)CC(c1cccc(C#N)c1)=N2 | – |
| 26 nM | O=C1CC(c2ccccc2)=Nc2ccc(C#Cc3ccccc3)cc2N1 | – |
| 18 nM | N#CCOc1cc2c(cc1C#Cc1ccccc1)NC(=O)CC(c1cccc(C#N)c1)=N2 | – |
